Source: publication PMC4604124, “In Vitro Characterization of the Pharmacological Properties of the Anti-Cancer Chelator, Bp4eT, and Its Phase I Metabolites” (PLoS ONE, 2015)
Several values for one entry are separate records, joined by “and”; a condition that tells them apart may be missing. Equal values may be shown once.

Columns and labels:
caspase 9 = test: Caspase activity, luminescent kit, caspase 9; type: cell-based, human; details: for kaspáza 9, raw signal / kaspáza 9, signal / viabilita: individual experiments by date; for kaspáza 9, raw signal, průměry / kaspáza 9, % kontroly / kaspáza 9, signal / viabilita, průměry: mean; for kaspáza 9, % kontroly / kaspáza 9, signal / viabilita / kaspáza 9, signal / viabilita, průměry: normalised to viability
Protocol: To assess the effect of the compounds on caspase activity, MCF-7 cells were incubated with 100 nM Bp4eT or its metabolites for 3, 24 or 72 h/37°C in 96-well plates, as described above. The cells were then lysed by adding 100 μL of cold lysis buffer (100 mM HEPES, 10 mM CHAPS, 10 mM D-L-dithiothreitol, pH 7.4) to 100 μL of medium in each well. Lysates were immediately frozen at -80°C. Thawed lysates were used to assess caspase activity using luminescent kits for caspases 3/7, 8 and 9 (Promega, Madison, WI, USA). The luminescence was measured using the Tecan Infinite 200M plate reader. Caspase activity in the experimental groups was corrected according to the cellular viability of each group and expressed as a percentage of activity of the untreated control (100%).

[1] = Ascorbate oxidation assay (redox activity of iron complexes); type: biochemical;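 as to %Fe 30min (ascorbate oxidation, Fe 100%), průměr: IBE 3 means excess free chelator over iron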;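 as to %Fe 30min (ascorbate oxidation, Fe 100%): IBE 3 means excess free chelator over iron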;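 as to %Fe 30min (ascorbate oxidation, Fe = 100%), průměr (mean): IBE 1 means iron-binding equivalents giving fully coordinated iron-chelator complexes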;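 as to %Fe 30min (ascorbate oxidation, Fe = 100%), single replicates: IBE 1 means iron-binding equivalents giving fully coordinated iron-chelator complexes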;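 as to %Fe 30min: ascorbate oxidation as % of the Fe control (Fe 100%): IBE 0.1 means iron-binding equivalents with iron in excess over chelator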;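 as to odečet 0 (reading minus time 0 reading) at čas 20, single replicates: IBE 1 means fully coordinated iron chelator complexes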;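 as to odečet 0 (reading minus time 0 reading) at čas 30, průměr (mean): IBE 1 means fully coordinated iron chelator complexes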;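 as to odečet 0 (reading minus time 0 reading) at čas 30, single replicates: IBE 1 means fully coordinated iron chelator complexes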;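 as to raw reading at čas 20 (time 20), průměr (mean): IBE 1 means fully coordinated iron chelator complexes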;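 as to raw reading at čas 20 (time 20), single replicates: IBE 1 means fully coordinated iron chelator complexes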;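 as to raw reading at čas 30 (time 30), průměr (mean): IBE 1 means fully coordinated iron chelator complexes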;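 as to raw reading at čas 30 (time 30), single replicates: IBE 1 means fully coordinated iron chelator complexes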
[2] = sheet IBE 1, time 10, replicates
[3] = sheet IBE 1, time 20, replicates
[4] = sheet IBE 1, time 30, replicates

## CCN=CNN=C(c1ccccc1)c1ccccn1 [Bp4eA, N ^3-ethyl-N ^1-[phenyl(pyridin-2-yl)methylene]formamidrazone]
Caspase 9; 3 hodiny
  kaspáza 9, raw signal: 5948 and 2664.5 and 3083.5 and 2163.5
  kaspáza 9, raw signal, průměry: 3464.88
  kaspáza 9, % kontroly: 101.76 % kontroly
  kaspáza 9, signal / viabilita: 61.4437 and 27.5247 and 31.853 and 22.3493
  kaspáza 9, signal / viabilita, průměry: 35.7927
Caspase 9; 24 hodin
  kaspáza 9, raw signal: 4444 and 2960 and 4885.5 and 3130
  kaspáza 9, raw signal, průměry: 3854.88
  kaspáza 9, % kontroly: 99.64 % kontroly
  kaspáza 9, signal / viabilita: 46.4885 and 30.9645 and 51.1071 and 32.7428
  kaspáza 9, signal / viabilita, průměry: 40.3257
Caspase 9; 72 hodin
  kaspáza 9, raw signal: 22564 and 18032 and 23775.5 and 21453
  kaspáza 9, raw signal, průměry: 21456.1
  kaspáza 9, % kontroly: 106.51 % kontroly
  kaspáza 9, signal / viabilita: 242.519 and 193.809 and 255.541 and 230.578
  kaspáza 9, signal / viabilita, průměry: 230.612
[1]; IBE 0.1, 30 min, mean (průměr)
  %Fe 30min: ascorbate oxidation as % of the Fe control (Fe 100%): 102.5%
[1]; IBE 0.1, time 10, mean (průměr)
  Change of absorbance after subtraction of time 0 (odečet 0): -0.03561
[1]; IBE 0.1, time 20, mean (průměr)
  Change of absorbance after subtraction of time 0 (odečet 0): -0.0674
[1]; IBE 0.1, time 30, mean (průměr)
  Change of absorbance after subtraction of time 0 (odečet 0): -0.09706
[1]; IBE 0.1, čas 0 (time 0), mean (průměr)
  Absorbance (ascorbate, λ = 265 nm): 0.8401
[1]; IBE 0.1, čas 10 (time 10), mean (průměr)
  Absorbance (ascorbate, λ = 265 nm): 0.8044
[1]; IBE 0.1, čas 20 (time 20), mean (průměr)
  Absorbance (ascorbate, λ = 265 nm): 0.7727
[1]; IBE 0.1, čas 30 (time 30), mean (průměr)
  Absorbance (ascorbate, λ = 265 nm): 0.743
[1]; sheet IBE 1, 30min, Fe 100%, mean
  %Fe 30min (ascorbate oxidation, Fe = 100%), průměr (mean): 106.5%
[1]; sheet IBE 1, 30min, Fe 100%, replicates
  %Fe 30min (ascorbate oxidation, Fe = 100%), single replicates: 113.3% and 104.9% and 102.6% and 110.5% and 113.6% and 110.3% and 106.1% and 101.1% and 95.68%
[1]; sheet IBE 1, time 0, mean of 9 readings
  raw reading at čas 0 (time 0), průměr (mean): 0.8163
[1]; sheet IBE 1, time 0, replicates of 2014-03-24 (two runs) and 2014-03-25
  raw reading at čas 0 (time 0), single replicates: 0.8356 and 0.8379 and 0.8058 and 0.8059 and 0.8041 and 0.8006 and 0.8152 and 0.8134 and 0.828
[1]; sheet IBE 1, time 10, mean
  odečet 0 (reading minus time 0 reading) at čas 10, průměr (mean): -0.03248
[1]; sheet IBE 1, time 10, mean of 9 readings
  raw reading at čas 10 (time 10), průměr (mean): 0.7838
[1]; [2]
  odečet 0 (reading minus time 0 reading) at čas 10, single replicates: -0.02971 and -0.02191 and -0.02781 and -0.03858 and -0.03648 and -0.03745 and -0.03205 and -0.03185
  raw reading at čas 10 (time 10), single replicates: 0.7761 and 0.784 and 0.7763 and 0.762 and 0.7787 and 0.7769 and 0.7906 and 0.8036 and 0.8061
[1]; sheet IBE 1, time 20, mean
  odečet 0 (reading minus time 0 reading) at čas 20, průměr (mean): -0.06498
[1]; sheet IBE 1, time 20, mean of 9 readings
  raw reading at čas 20 (time 20), průměr (mean): 0.7513
[1]; [3]
  odečet 0 (reading minus time 0 reading) at čas 20, single replicates: -0.0647 and -0.0595 and -0.0576 and -0.07087 and -0.07167 and -0.06987 and -0.06821 and -0.06221 and -0.06021
  raw reading at čas 20 (time 20), single replicates: 0.7411 and 0.7464 and 0.7465 and 0.7297 and 0.7435 and 0.7598 and 0.7734 and 0.7777
[1]; sheet IBE 1, time 30, mean
  odečet 0 (reading minus time 0 reading) at čas 30, průměr (mean): -0.09465
[1]; sheet IBE 1, time 30, mean of 9 readings
  raw reading at čas 30 (time 30), průměr (mean): 0.7216
[1]; [4]
  odečet 0 (reading minus time 0 reading) at čas 30, single replicates: -0.09786 and -0.09066 and -0.08866 and -0.09551 and -0.09811 and -0.09531 and -0.1001 and -0.09539 and -0.09029
  raw reading at čas 30 (time 30), single replicates: 0.7079 and 0.7152 and 0.7154 and 0.7051 and 0.7171 and 0.7181 and 0.7279 and 0.7402 and 0.7477
[1]; sheet IBE 3, 30min, Fe alone = 100%, mean (průměr) of the 9 replicates
  %Fe 30min (ascorbate oxidation, Fe 100%), průměr: 105.3%
[1]; sheet IBE 3, 30min, Fe alone = 100%, single replicates
  %Fe 30min (ascorbate oxidation, Fe 100%): 100.1% and 103.3% and 98.42% and 112.4% and 108.5% and 106.2% and 109.9% and 107% and 102%
